Laboratory results published in patent US20100216823A1 (Pfizer Inc., priority 2007, published 2010).

How the values were obtained:
Format in all cases: biochemical
PDE7B = biological target: T1, PDE7B (Homo sapiens, UniProt Q9NP56); test: PDE7B [3H]-cAMP scintillation proximity assay (SPA) enzyme inhibition; settings: for Ki: full length PDE7B in cell lysate, ~25 nM cAMP, Ki from IC50 by Cheng-Prussof equation; for 1C/7B selectivity: ratio PDE1C Ki / PDE7B Ki
T1 construct: cell lysate containing full length PDE7A, PDE7B and PDE1C enzyme; made in house; host or cells: cell lysate
T1 sequence (Q9NP56 whole entry): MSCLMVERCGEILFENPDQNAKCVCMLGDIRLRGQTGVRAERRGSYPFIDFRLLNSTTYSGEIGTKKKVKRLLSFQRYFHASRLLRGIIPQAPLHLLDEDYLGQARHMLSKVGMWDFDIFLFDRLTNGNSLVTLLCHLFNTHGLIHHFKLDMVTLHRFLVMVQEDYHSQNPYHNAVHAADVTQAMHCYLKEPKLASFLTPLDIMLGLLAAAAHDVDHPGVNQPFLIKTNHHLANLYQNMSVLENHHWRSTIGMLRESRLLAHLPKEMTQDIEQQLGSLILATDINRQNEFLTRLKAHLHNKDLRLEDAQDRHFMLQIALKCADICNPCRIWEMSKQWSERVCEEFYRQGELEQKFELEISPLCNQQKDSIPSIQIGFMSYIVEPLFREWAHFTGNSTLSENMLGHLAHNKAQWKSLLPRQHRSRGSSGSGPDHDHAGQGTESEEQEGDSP
Protocol: (§1) The ability of the compounds of formula (I) to inhibit PDE7 and PDE1 may be measured using the following assay protocol.
(§2) PDE7A, PDE7B and PDE1C enzymes catalyse the hydrolysis of 3′,5′-cyclic adenosine monophosphate (cAMP) to the 5′ adenosine monophosphate, 5′AMP. In a multiwell plate, PDE enzyme, [^3H]-cAMP and the test compounds, are incubated at room temperature. The incubation is terminated by addition of commercially available yttrium silicate scintillation proximity assay (SPA) beads containing zinc sulphate. The yttrium silicate beads preferentially bind linear nucleotides, thus the product of the enzyme reaction, [^3H]-5′AMP binds to the bead to produce a light signal, which is detected by a scintillation counter. The amount of signal produced directly correlates with the amount of product formed, and thus the activity of the enzyme. The maximum signal is obtained where enzyme and substrate are incubated alone. The background signal is measured from wells either containing no enzyme, or from wells containing a supra-maximal concentration of a known PDE 7A/7B/1C inhibitor. Each purified batch of enzyme is quality controlled and its Km, Vmax and specific activity determined from kinetic studies before use in compound inhibition studies. The inhibition of the enzyme, by a test compound, is calculated relative to the maximum and background responses.
(§3) The compound of Example 75 of WO 02/074754, 5′-carboxypropoxy-8′-chloro-spiro[cyclohexane-1-4′-(3′,4′-dihydro)quinazolin]-2′(1′H)-one (referred to as compound A hereafter) was used as a standard for PDE7A and PDE7B. The compound of Example 32 of WO 02/074754, 4-(8′-chloro-2′-oxo-2′,3′-dihydro-1′H-spiro[cyclohexane-1,4′-quinazolin]-6′-yl)benzoic acid (referred to as compound B hereafter) was used as a standard for PDE1C.
(§4) The optimisation of this assay has been carried out using cell lysate containing full length PDE7A, PDE7B and PDE1C enzyme. The concentration of the enzyme in this cell lysate sample is unknown, so the specific activity of the cell lysate is used as a measure to ensure that the same activity per well is used despite any batch-to-batch variation of concentration/activity.
(§5) PDE7A/7B/1C stock enzyme was prepared and kept at −20° C. in appropriately sized aliquots to reduce the number of freeze/thaw cycles. […] PDE7A is diluted to 1/8000, PDE7B to 1/10000 and PDE1C to 1/200000.
(§6) The final assay [cAMP] of ˜25 nM is required, so ˜50 nM [^3H]-cAMP was prepared. 9 ml of substrate solution was prepared by mixing 10.8 μl of [^3H]-cAMP (available from Amersham) with 8975 μl of assay buffer.
(§7) 1 μl test compound was transferred into a suitable multi-well assay plate immediately prior to reagent assay addition, 14 μl enzyme solution was then added to the assay plate, followed by 15 μl substrate solution (ie: final assay volume 30 μl, with a final screening compound concentration of 1 μM for PDE7A and PDE7B and 10 μM for PDE1C). The plate was then sealed using a plate sealer and incubated at room temperature for 45 min on the plate shaker.
(§8) 30 μl Yttrium Silicate PDE4 SPA beads were then added, ensuring constant stirring of the beads to give even distribution in the assay plate. The plate was then sealed using a plate sealer and incubated at room temperature for 30 mins on the plate shaker. The beads were then allowed to settle for 30 mins, before spinning the plates for 1 min at 200 g.
(§9) The plates were then read on a suitable radioactive counter, for example NXT-TopCount™ (available from Perkin Elmer) using the relevant protocol (30 second read time per well).
(§10) The data was fitted to a sigmoid curve using a least squares algorithm.
(§11) The IC50 value was converted to a value using the Cheng-Prussof equation: […]

PDE1C = biological target: T2, PDE1C (Homo sapiens, UniProt Q14123); test: PDE1C [3H]-cAMP scintillation proximity assay (SPA) enzyme inhibition; settings: full length PDE1C in cell lysate; 75 nM cAMP; Ki from IC50 by Cheng-Prussof equation
T2 construct: cell lysate containing full length PDE7A, PDE7B and PDE1C enzyme; made in house; host or cells: cell lysate
T2 sequence (Q14123 whole entry): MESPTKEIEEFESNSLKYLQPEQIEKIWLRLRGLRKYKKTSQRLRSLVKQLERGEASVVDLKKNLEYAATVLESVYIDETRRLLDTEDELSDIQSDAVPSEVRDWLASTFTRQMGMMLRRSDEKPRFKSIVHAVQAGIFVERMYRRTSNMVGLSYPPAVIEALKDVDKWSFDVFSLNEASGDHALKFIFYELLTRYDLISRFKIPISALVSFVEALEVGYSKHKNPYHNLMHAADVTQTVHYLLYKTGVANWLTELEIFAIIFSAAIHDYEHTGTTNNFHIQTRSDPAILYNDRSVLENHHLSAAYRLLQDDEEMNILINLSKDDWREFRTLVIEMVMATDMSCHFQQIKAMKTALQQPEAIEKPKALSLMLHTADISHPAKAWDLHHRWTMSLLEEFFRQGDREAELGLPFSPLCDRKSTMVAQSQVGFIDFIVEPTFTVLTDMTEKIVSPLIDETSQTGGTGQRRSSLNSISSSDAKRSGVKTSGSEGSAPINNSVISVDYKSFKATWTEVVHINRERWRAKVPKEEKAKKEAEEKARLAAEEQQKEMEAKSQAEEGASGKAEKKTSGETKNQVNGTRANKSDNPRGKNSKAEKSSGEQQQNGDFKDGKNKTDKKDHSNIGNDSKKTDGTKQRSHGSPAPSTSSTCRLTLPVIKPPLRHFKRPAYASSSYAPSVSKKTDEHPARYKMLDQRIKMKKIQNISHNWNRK
Protocol: as §1, §2, §3, §4, §5
The final assay [cAMP]=75 nM therefore the required solution [cAMP]=0.15 μM (1/2 dilution in assay plate)
as §7, §8, §9, §10, §11

PDE7A = biological target: T3, PDE7A (Homo sapiens, UniProt Q13946); test: PDE7A [3H]-cAMP scintillation proximity assay (SPA) enzyme inhibition; settings: for Ki: full length PDE7A in cell lysate, ~25 nM cAMP, Ki from IC50 by Cheng-Prussof equation; for 1C/7A selectivity: ratio PDE1C Ki / PDE7A Ki
T3 construct: cell lysate containing full length PDE7A, PDE7B and PDE1C enzyme; made in house; host or cells: cell lysate
T3 sequence (Q13946 whole entry): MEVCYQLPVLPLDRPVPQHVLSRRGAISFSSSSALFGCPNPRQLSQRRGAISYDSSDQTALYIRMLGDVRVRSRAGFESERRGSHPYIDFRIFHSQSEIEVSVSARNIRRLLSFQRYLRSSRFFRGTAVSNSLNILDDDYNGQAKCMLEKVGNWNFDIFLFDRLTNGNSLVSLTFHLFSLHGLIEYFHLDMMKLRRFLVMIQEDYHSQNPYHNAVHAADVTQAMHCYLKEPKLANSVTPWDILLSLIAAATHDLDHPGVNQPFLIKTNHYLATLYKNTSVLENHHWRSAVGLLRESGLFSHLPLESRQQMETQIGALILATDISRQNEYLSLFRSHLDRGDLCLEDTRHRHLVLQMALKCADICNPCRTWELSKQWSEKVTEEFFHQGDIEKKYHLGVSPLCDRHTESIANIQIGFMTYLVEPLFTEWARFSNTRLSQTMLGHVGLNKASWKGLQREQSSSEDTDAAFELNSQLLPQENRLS
Protocol: as §1, §2, §3, §4, §5, §6, §7, §8, §9, §10, §11

Ki (PDE7B) | 1C/7B selectivity (PDE7B) | Ki (PDE1C) | Ki (PDE7A) | 1C/7A selectivity (PDE7A) | Compound
0.8 nM | 48 | 37 nM | < 0.15 nM | >245 | O=C1Nc2c(Cl)ccc(Oc3ccccc3-c3nnn[nH]3)c2C2(CCCCC2)N1 [Example 17, 8′-chloro-5′-[2-(1H-tetrazol-5-yl)phenoxy]-1′H-spiro[cyclohexane-1,4′-quinazolin]-2′(3′H)-one]
1.6 nM | 59 | 94 nM | 1.1 nM | 85 | O=C1Nc2c(Cl)ccc(Oc3c(F)cccc3-c3noc(=O)[nH]3)c2C2(CCCCC2)N1 [Example 18, 8′-chloro-5′-[2-fluoro-6-(5-oxo-4,5-dihydro-1,2,4-oxadiazol-3-yl)phenoxy]-1′H-spiro[cyclohexane-1,4′-quinazolin]-2′(3′H)-one]
1.5 nM | 115 | 172 nM | 0.94 nM | 183 | O=C1Nc2c(Cl)ccc(Oc3c(F)cccc3-c3n[nH]c(=O)[nH]3)c2C2(CCCCC2)N1 [Example 19, 8′-chloro-5′-[2-fluoro-6-(5-oxo-4,5-dihydro-1H-1,2,4-triazol-3-yl)phenoxy]-1′H-spiro[cyclohexane-1,4′-quinazolin]-2′(3′H)-one]
7 nM | 94 | 657 nM | 2.3 nM | 290 | CS(=O)(=O)NC(=O)c1cccc(F)c1Oc1ccc(Cl)c2c1C1(CCCCC1)NC(=O)N2 [Example 20, 2-[(8′-chloro-2′-oxo-2′,3′-dihydro-1′H-spiro[cyclohexane-1,4′-quinazolin]-5′-yl)oxy]-3-fluoro-N-(methylsulfonyl)benzamide]
2.4 nM | 25 | 62 nM | 0.2 nM | 311 | O=C1Nc2c(Cl)ccc(Oc3c(F)cccc3NS(=O)(=O)C(F)(F)F)c2C2(CCCCC2)N1 [Example 21, N-{2-[(8′-chloro-2′-oxo-2′,3′-dihydro-1′H-spiro[cyclohexane-1,4′-quinazolin]-5′-yl)oxy]-3-fluorophenyl}-1,1,1-trifluoromethanesulfonamide]
11 nM | 14 | 157 nM | 0.98 nM | 160 | O=C(O)COc1ccc(Oc2ccc(Cl)c3c2C2(CCCCC2)NC(=O)N3)cc1 [Example 24, {4-[(8′-chloro-2′-oxo-2′,3′-dihydro-1′H-spiro[cyclohexane-1,4′-quinazolin]-5′-yl)oxy]phenoxy}acetic acid]

Compound | Ki (PDE7B) | 1C/7B selectivity (PDE7B) | Ki (PDE1C) | Ki (PDE7A) | 1C/7A selectivity (PDE7A)
O=C(O)COc1ccccc1Oc1ccc(Cl)c2c1C1(CCCCC1)NC(=O)N2 [Example 23, {2-[(8′-chloro-2′-oxo-2′,3′-dihydro-1′H-spiro[cyclohexane-1,4′-quinazolin]-5′-yl)oxy]phenoxy}acetic acid] | 1.9 nM | 31 | 58 nM | 0.48 nM | 121
